The subject of this assay is 628569-122-R-J1-PDC complex spheroid viability. Briefly: Anticancer human tumor 628569-122-R-J1-PDC patient-derived head and neck squamous carcinoma cell line growth inhibition [CLK]. The following applies: for viability, T/C: stronger effect = lower value. An excerpt: A high-throughput screen of multi-cell type tumor spheroids was designed to identify active combinations of […] and targeted small molecules. Complex spheroids include a stromal component modeled by human endothelial cells (HUVEC) and fibroblasts modeled by human mesenchymal stem cells (MSCs). The concentration ranges selected for each drug and investigational agent were based upon clinically achievable concentrations if the clinical Cmax of the agent was known.
Compounds. The drugs and investigational agents: cirtuvivint (SM08502; NSC835563), CC-671 (NSC850746), vemurafenib (NSC761431), tapotoclax (NSC804041), sotorasib (NSC818433), adagrasib (NSC831453), MRTX-1133 (NSC836407), BAY2416964 (NSC825713), copanlisib (NSC816437), inavolisib (NSC800729), abemaciclib (NSC768073), osimertinib (NSC779217), entinostat (NSC756642), eltanexor (KPT-8602, NSC794443), venetoclax (NSC766270), ceralasertib (NSC777638), bortezomib (NSC756655), olaparib (NSC753686), talazoparib (NSC767125), alisertib (NSC759677), peposertib (NSC802822), gemcitabine (NSC613327), 5-fluorouracil (NSC19893), SN-38 (NSC673596), oxaliplatin (NSC266046), paclitaxel (NSC125973), and doxorubicin (NSC123127), were obtained from the National Cancer Institute (NCI) Developmental Therapeutics Program Chemical Repository. The FDA-approved anticancer drug set is available from the Developmental Therapeutics Program at https://dtp.cancer.gov/organization/dscb/obtaining/available plates.htm. […] The stock solutions were prepared in dimethyl sulfoxide (DMSO, Sigma-Aldrich, St. Louis, MO, cat. D2650), except for the platinum complexes which were prepared in saline (Quality Biological, Gaithersburg, MD, cat. 114-055-101), at 800-fold the tested concentration and stored at -70 degrees C prior to their use. All drugs and investigational agents were tested over a range starting from a high concentration at or near the clinical Cmax and decreasing in half-log increments. If the clinical Cmax for an agent had not been determined, the highest concentration tested was 10 microM.
Cell Culture. All cells were maintained in an incubator at 37 degrees C and 5% CO2 with 95% humidity. The PDC lines were cultured according to standard operating procedures established by the NCI PDMR. Briefly, all PDCs were thawed and cultured in Matrigel-coated flasks prepared with a working solution of 1X Ham's F-12 nutrient mix, without supplementation (Invitrogen, Waltham, MA, cat. 11765054), 100 U/mL penicillin-streptomycin (Invitrogen, cat. 15140122), and 2.5% Matrigel (Corning Inc., Corning, NY, cat. 354248) for the first three passages. The 947758-054-R-J2-PDC line was cultured in 6B/Colon 1A media, which includes advanced DMEM/F-12 (Thermo Fisher Scientific, cat. 12634028), 10 mM HEPES (Thermo Fisher Scientific, cat. 15630080), 1X GlutaMAX supplement (Thermo Fisher Scientific, cat. 35050061), 0.1 mg/mL primocin (InvivoGen, cat. ant-pm-2), 10% defined fetal bovine serum, heat inactivated (HyClone Laboratories Inc., cat. SH30070.03HI), 1.25 mM N-Acetyl-L-cysteine (Sigma-Aldrich, cat. A9165), 10 mM nicotinamide (Sigma-Aldrich, cat. N0636), 1X B-27 supplement (Thermo Fisher Scientific, cat. 17504044), 1X N-2 supplement (Thermo Fisher Scientific, cat. 17502048), and 10 microM Y-27632 dihydrochloride (Tocris Bioscience, cat. 1254). The 876862-298-R-J1-PDC was cultured in 6E media, which includes all 6B/Colon 1A media components plus 50% L-WRN conditioned media (ATCC, cat. CRL-3276), 50 ng/mL recombinant human EGF recombinant protein (hEGF; Thermo Fisher Scientific, cat. PHG0311), 10 ng/mL recombinant human fibroblast growth factor 10 (hGFG-10; PeproTech, cat. 100-26), 1 ng/mL recombinant human fibroblast growth factor 2 (hFGF-2; PeproTech, cat. 100-18B), and 1 µM prostaglandin E2 (PGE2; Tocris, cat. 2296). The 227483-062-R1-J1-PDC line was cultured in Panc media, containing all 6E components except hFGF-2, with the addition of 500 nM SB-431542 (Selleckchem, cat. S1067) and 10 nM gastrin (Tocris, cat. 3006). […]

“And” between values parts separate entries of the source, which are not always exact repeats. Equal entries are not always repeated.
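Further: spheroids exposed to agents for seven days before readout.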

Turning to `CC(=O)O[C@H]1C(=O)[C@@]2(C)[C@H]([C@H](OC(=O)c3ccccc3)[C@]3(O)C[C@H](OC(=O)[C@H](O)[C@@H](NC(=O)c4ccccc4)c4ccccc4)C(C)=C1C3(C)C)[C@]1(OC(C)=O)CO[C@@H]1C[C@@H]2O`, the viability, T/C is, setting by setting: (compound 0.0316 µM) 29.1% and 29.6%; (compound 0.1 µM) 30.8% and 26.9%; (compound 0.316 µM) 27.4% and 26.9%; (compound 1 µM) 27.5% and 24.6%; (compound 3.16 µM) 27.2% and 33.9%; (compound 10 µM) 44.5% and 41.1%. In addition, the IC50 (curve of compound) was less than 31.6 nM.
Take `CC1(C)CCC(CN2CCN(c3ccc(C(=O)NS(=O)(=O)c4ccc(NCC5CCOCC5)c([N+](=O)[O-])c4)c(Oc4cnc5[nH]ccc5c4)c3)CC2)=C(c2ccc(Cl)cc2)C1`: the viability, T/C (compound 0.0316 µM) was 96.8% and 88.2%; the viability, T/C (compound 0.1 µM) is 97.5% and 99.5%; the viability, T/C (compound 0.316 µM) was 86.7% and 95.1%; the viability, T/C (compound 1 µM) was 101% and 91.4%; the viability, T/C (compound 3.16 µM) is 101% and 90.6%; the viability, T/C (compound 10 µM) is 80.5% and 73.1%. Also, the IC50 (curve of compound) was more than 10000 nM.
On to `CC1COCCN1c1cc(C2(S(C)(=N)=O)CC2)nc(-c2ccnc3[nH]ccc23)n1` (stereo not drawn), for which the viability, T/C is 106% and 94.9% (compound 0.0316 µM); 89.1% and 89.6% (compound 0.1 µM); 102% and 68.9% (compound 0.316 µM); 65.9% and 50.8% (compound 1 µM); 42.5% and 40.7% (compound 3.16 µM); 33.7% and 33.3% (compound 10 µM). Besides, under “curve of compound”, the IC50 is 1930 nM and 1080 nM.
Take `COc1ccc([C@@H](O)c2cc(-c3ncnc4cc(N5CCOCC5)ccc34)c(F)cc2Cl)nn1`: the viability, T/C is, setting by setting: (compound 0.0316 µM) 79.4% and 79.8%; (compound 0.1 µM) 92.1% and 72.9%; (compound 0.316 µM) 69.5% and 75.5%; (compound 1 µM) 51% and 57.1%; (compound 3.16 µM) 41.2% and 39.4%; (compound 10 µM) 21.8% and 31.3%. In addition, the IC50 (curve of compound) is 1350 nM and 1610 nM.
Consider `COc1cccc2c1C(=O)c1c(O)c3c(c(O)c1C2=O)CC(O)(C(=O)CO)CC3OC1CC(N)C(O)C(C)O1` (stereo not drawn), for which the viability, T/C was 79.4% and 65.2% (compound 0.0316 µM); 51.3% and 43.7% (compound 0.1 µM); 107% and 88.3% (compound 0.316 µM); 31.9% and 12.3% (compound 1 µM); 12.3% and 14.2% (compound 3.16 µM); 4.08% and 10.9% (compound 10 µM). Further, under “curve of compound”, the IC50 was 644 nM and 445 nM.
In the case of `Nc1ccn(C2OC(CO)C(O)C2(F)F)c(=O)n1` (stereo not drawn), the viability, T/C was 56.4% and 64.8% (compound 0.0316 µM); 48.9% and 39.6% (compound 0.1 µM); 59% and 51.7% (compound 0.316 µM); 42.4% and 32.9% (compound 1 µM); 49.2% and 40.4% (compound 3.16 µM); 45.5% and 42% (compound 10 µM). In addition, the IC50 (curve of compound) was 626 nM and 65.4 nM.
`O=C(c1cc(Cc2n[nH]c(=O)c3ccccc23)ccc1F)N1CCN(C(=O)C2CC2)CC1`: the viability, T/C by setting is: (compound 0.0316 µM) 86.8% and 91.2%; (compound 0.1 µM) 96.3% and 91.3%; (compound 0.316 µM) 90.6% and 110%; (compound 1 µM) 88.7% and 91.9%; (compound 3.16 µM) 74.6% and 93.7%; (compound 10 µM) 55.2% and 51.5%. The IC50 (curve of compound) is more than 10000 nM.
Turning to `O=c1[nH]cc(F)c(=O)[nH]1`, the viability, T/C is 93.5% and 94.5% (compound 0.0316 µM); 103% and 97.7% (compound 0.1 µM); 96% and 86.2% (compound 0.316 µM); 82.7% and 70.5% (compound 1 µM); 84.2% and 69.9% (compound 3.16 µM); 68.2% and 50.6% (compound 10 µM). For the same molecule, under “curve of compound”, the half-maximal inhibitory concentration (IC50) was more than 10000 nM.
On to `CCCS(=O)(=O)Nc1ccc(F)c(C(=O)c2c[nH]c3ncc(-c4ccc(Cl)cc4)cc23)c1F` + CN1CCN(c2cc(C(=O)Nc3cc4cc(-c5cnn(C)c5)ccc4cn3)ccn2)CC1, for which the half-maximal inhibitory concentration (IC50) was more than 10000 nM (curve of first compound, second compound 0.0316 µM); more than 10000 nM (curve of first compound, second compound 0.1 µM); less than 31.6 nM (curve of first compound, second compound 0.316 µM); less than 31.6 nM (curve of first compound, second compound 1 µM); less than 31.6 nM (curve of first compound, second compound 3.16 µM); less than 31.6 nM (curve of first compound, second compound 10 µM). Moreover, the viability, T/C is, setting by setting: (second compound 0.0316 µM, first compound 0.0316 µM) 121%; (second compound 0.0316 µM, first compound 0.1 µM) 94.7%; (second compound 0.0316 µM, first compound 0.316 µM) 87.2%; (second compound 0.0316 µM, first compound 1 µM) 87.9%; (second compound 0.0316 µM, first compound 3.16 µM) 91.7%; (second compound 0.0316 µM, first compound 10 µM) 104%. The viability, T/C was 70.8% (second compound 0.1 µM, first compound 0.0316 µM); 72.7% (second compound 0.1 µM, first compound 0.1 µM); 68.9% (second compound 0.1 µM, first compound 0.316 µM); 80.9% (second compound 0.1 µM, first compound 1 µM); 86.6% (second compound 0.1 µM, first compound 3.16 µM); 93.5% (second compound 0.1 µM, first compound 10 µM). Moreover, the viability, T/C reads like this: (second compound 0.316 µM, first compound 0.0316 µM) 37.9%; (second compound 0.316 µM, first compound 0.1 µM) 36.1%; (second compound 0.316 µM, first compound 0.316 µM) 37.9%; (second compound 0.316 µM, first compound 1 µM) 46.5%; (second compound 0.316 µM, first compound 3.16 µM) 46.4%; (second compound 0.316 µM, first compound 10 µM) 44.5%. Besides, the viability, T/C by setting is: (second compound 1 µM, first compound 0.0316 µM) 5.76%; (second compound 1 µM, first compound 0.1 µM) 9.94%; (second compound 1 µM, first compound 0.316 µM) 5.5%; (second compound 1 µM, first compound 1 µM) 5.99%; (second compound 1 µM, first compound 3.16 µM) 5.05%; (second compound 1 µM, first compound 10 µM) 5.13%. The viability, T/C reads like this: (second compound 3.16 µM, first compound 0.0316 µM) 5.86%; (second compound 3.16 µM, first compound 0.1 µM) 6.15%; (second compound 3.16 µM, first compound 0.316 µM) 6.62%; (second compound 3.16 µM, first compound 1 µM) 4.48%; (second compound 3.16 µM, first compound 3.16 µM) 5.63%; (second compound 3.16 µM, first compound 10 µM) 8.05%. For the same molecule, the viability, T/C is 5.01% (second compound 10 µM, first compound 0.0316 µM); 2.99% (second compound 10 µM, first compound 0.1 µM); 2.11% (second compound 10 µM, first compound 0.316 µM); 1.75% (second compound 10 µM, first compound 1 µM); 1.53% (second compound 10 µM, first compound 3.16 µM); 1.67% (second compound 10 µM, first compound 10 µM).

For orientation: viability, T/C means the ratio of treated to control. By IC50 is commonly meant the concentration needed to halve the response being measured.
